Assay results as given in US20180099931A1 (AbbVie S.à.r.l., priority 2016, published 2018).
Where two headings read alike, the source gives them in different places.

Biological target: T1, F508delCFTR (Homo sapiens, UniProt P13569, DEL508-508)
T1 construct: expressed in transfected cells; host or cells: CFBE41o- human lung-derived epithelial cells (CFBE4lo-F508delCFTR-HRP), doxycycline-inducible
Assay: Cell Surface Expression-Horse Radish Peroxidase (CSE-HRP) Assay;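 on Maximum % activity (with co-corrector): co-corrector and positive control are both the same reference corrector at 2 µM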;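 on Maximum % activity (without co-corrector): percent of the 2 µM on-plate positive control corrector response above DMSO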
Type: cell-based
Details: for Maximum % activity (with co-corrector) / Emax: maximum at any tested concentration, normalized to on-plate positive control; for Emax: read-out: Maximum % activity (without co-corrector)

[1] = test compound without co-corrector, read-out: EC50 (without co-corrector)
[2] = with co-corrector (2 μM of 3-[(2R,4R)-4-({[1-(2,2-difluoro-1,3-benzodioxol-5-yl)cyclopropyl]carbonyl}amino)-7-methoxy-3,4-dihydro-2H-chromen-2-yl]benzoic acid), read-out: EC50 (with co-corrector)
[3] = CSE-HRP, test compound without co-corrector, read-out: EC50 (without co-corrector)
[4] = CSE-HRP, with co-corrector (2 μM of 3-[(2R,4R)-4-({[1-(2,2-difluoro-1,3-benzodioxol-5-yl)cyclopropyl]carbonyl}amino)-7-methoxy-3,4-dihydro-2H-chromen-2-yl]benzoic acid), read-out: EC50 (with co-corrector)
[5] = CSE-HRP, with co-corrector (2 μM)
[6] = test compound without co-corrector
[7] = with co-corrector (2 μM of 3-[(2R,4R)-4-({[1-(2,2-difluoro-1,3-benzodioxol-5-yl)cyclopropyl]carbonyl}amino)-7-methoxy-3,4-dihydro-2H-chromen-2-yl]benzoic acid)

T1 sequence (P13569 with tags, fused parts or gaps DEL508-508): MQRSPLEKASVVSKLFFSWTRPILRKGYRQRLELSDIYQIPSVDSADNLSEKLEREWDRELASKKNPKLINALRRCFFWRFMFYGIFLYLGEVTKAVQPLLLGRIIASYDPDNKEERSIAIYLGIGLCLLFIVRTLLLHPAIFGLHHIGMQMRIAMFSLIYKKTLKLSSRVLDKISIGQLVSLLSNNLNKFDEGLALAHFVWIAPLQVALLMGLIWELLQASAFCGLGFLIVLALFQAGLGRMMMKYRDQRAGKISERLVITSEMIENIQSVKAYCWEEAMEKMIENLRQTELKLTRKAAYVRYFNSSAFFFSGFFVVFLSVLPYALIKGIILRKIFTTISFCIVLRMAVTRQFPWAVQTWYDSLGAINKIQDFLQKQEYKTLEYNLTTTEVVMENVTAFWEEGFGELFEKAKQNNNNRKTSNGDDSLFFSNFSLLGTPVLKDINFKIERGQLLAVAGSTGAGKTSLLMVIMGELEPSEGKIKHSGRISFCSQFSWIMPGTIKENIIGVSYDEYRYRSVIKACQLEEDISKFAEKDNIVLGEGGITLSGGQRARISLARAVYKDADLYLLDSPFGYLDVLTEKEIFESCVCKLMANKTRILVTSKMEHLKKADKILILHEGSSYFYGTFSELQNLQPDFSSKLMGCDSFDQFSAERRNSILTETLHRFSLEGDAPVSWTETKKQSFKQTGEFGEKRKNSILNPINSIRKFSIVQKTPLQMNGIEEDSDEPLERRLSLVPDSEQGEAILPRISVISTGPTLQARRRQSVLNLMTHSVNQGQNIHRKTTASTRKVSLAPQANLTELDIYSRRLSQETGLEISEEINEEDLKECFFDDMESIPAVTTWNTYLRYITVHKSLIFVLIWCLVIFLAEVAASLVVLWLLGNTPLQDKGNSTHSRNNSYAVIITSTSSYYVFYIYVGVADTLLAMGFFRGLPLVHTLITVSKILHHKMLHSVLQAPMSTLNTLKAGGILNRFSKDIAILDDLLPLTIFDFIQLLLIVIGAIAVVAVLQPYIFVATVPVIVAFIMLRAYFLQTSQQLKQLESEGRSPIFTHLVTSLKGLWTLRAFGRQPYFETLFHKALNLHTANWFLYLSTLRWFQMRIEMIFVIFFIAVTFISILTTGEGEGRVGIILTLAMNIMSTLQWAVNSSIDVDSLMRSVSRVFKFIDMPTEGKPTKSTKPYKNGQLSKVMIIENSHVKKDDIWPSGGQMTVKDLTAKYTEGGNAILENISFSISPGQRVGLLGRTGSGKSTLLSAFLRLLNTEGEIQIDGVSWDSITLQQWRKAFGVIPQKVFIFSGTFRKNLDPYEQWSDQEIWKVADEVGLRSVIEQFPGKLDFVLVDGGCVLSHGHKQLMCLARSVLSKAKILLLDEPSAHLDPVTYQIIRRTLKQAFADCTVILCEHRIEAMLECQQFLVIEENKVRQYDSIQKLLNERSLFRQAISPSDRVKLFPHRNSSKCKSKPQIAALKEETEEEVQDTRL

| Structure (SMILES) | EC50 [1] [µM] | EC50 [2] [µM] | Maximum % activity (with co-corrector) (with co-corrector (2 μM)) | Emax (without co-corrector) [%] | EC50 [3] [µM] | EC50 [4] [µM] | Maximum % activity (with co-corrector) [5] | Emax (CSE-HRP, without co-corrector) [%] | Emax [6] [%] | Maximum % activity (with co-corrector) [7] |
| --- | --- | --- | --- | --- | --- | --- | --- | --- | --- | --- |
| COc1ncc(C(F)(F)F)cc1CN[C@H]1[C@H](C(C)(C)C)[C@@H](C(=O)O)N(C(=O)[C@@H]2CCCCO2)[C@H]1c1ccccc1C1CC1 [Example 116, (2S,3S,4S,5S)-3-tert-butyl-5-(2-cyclopropylphenyl)-4-({[2-methoxy-5-(trifluoromethyl)pyridin-3-yl]methyl}amino)-1-[(2S)-oxane-2-carbonyl]pyrrolidine-2-carboxylic acid] | 1 to 10 | < 1 | +++ (≥350) | > 200 |  |  |  |  |  |  |
| CCn1ccc(=O)c(C(=O)N2[C@H](C(=O)O)[C@@H](C(C)(C)C)[C@H](NCc3cc(C(C)(C)C)ccc3OC)[C@@H]2c2ccccc2)c1 [Example I-101] | > 10 | > 10 | + (<150) | < 100 |  |  |  |  |  |  |
| COc1ncc(C2CCC2)cc1CN[C@H]1[C@H](C(C)(C)C)[C@@H](C(=O)O)N(C(=O)C2Cc3ccccc3CO2)[C@H]1c1ccccc1 (stereo partly drawn) [Example I-206] | 1 to 10 | 1 to 10 | +++ (≥350) | 100 to 200 |  |  |  |  |  |  |
| COc1ccc(C(C)(C)C)cc1CN[C@H]1[C@H](C(C)(C)C)[C@@H](C(=O)O)N(C(=O)[C@@H]2CCCO2)[C@H]1c1cccnc1C1CC1 [Example 96, (2S,3S,4S,5S)-3-tert-butyl-4-{[(5-tert-butyl-2-methoxyphenyl)methyl]amino}-5-(2-cyclopropylpyridin-3-yl)-1-[(2S)-oxolane-2-carbonyl]pyrrolidine-2-carboxylic acid] | 1 to 10 | 1 to 10 | +++ (≥350) | 100 to 200 |  |  |  |  |  |  |
| CC(C)c1cc(C(F)(F)F)cc(N[C@H]2[C@H](C(C)(C)C)[C@@H](C(=O)O)N(C(=O)C3CCCCC3)[C@H]2c2ccccc2)n1 [Example I-54] | 1 to 10 | 1 to 10 | ++ (≥150 and <350) | < 100 |  |  |  |  |  |  |
| COc1ncc(C2CCC2)cc1CN[C@H]1[C@H](C(C)(C)C)[C@@H](C(=O)O)N(C(=O)C2CCCCC2)[C@H]1c1cccc2c1OC(C)(C)C2 [Example I-307] |  |  |  |  | < 1 | < 1 | +++ (≥350) | > 200 |  |  |
| COc1ccc(C(F)(F)F)cc1C(C)N[C@@H]1[C@@H](C(C)(C)C)[C@H](C(=O)O)N(C(=O)C2CCCCC2)[C@@H]1c1ccccc1 (mixture of isomers) [Example I-8] | 1 to 10 | 1 to 10 | ++ (≥150 and <350) | < 100 |  |  |  |  |  |  |
| COc1ccc(C(C)(C)C)cc1CN[C@H]1[C@H](C(C)(C)C)[C@@H](C(=O)O)N(C(=O)C(C)n2cc(Cl)cn2)[C@H]1c1ccccc1 (stereo partly drawn) [Example I-103] | 1 to 10 | 1 to 10 | +++ (≥350) | 100 to 200 |  |  |  |  |  |  |
| COc1ccc(S(C)(=O)=O)cc1CN[C@@H]1[C@@H](C(C)(C)C)[C@H](C(=O)O)N(C(=O)C2CCCCC2)[C@@H]1c1ccccc1 (racemic) [Example I-30] | > 10 | > 10 | + (<150) | < 100 |  |  |  |  |  |  |
| COc1cc(C(F)(F)F)cc(N[C@@H]2[C@@H](C(C)(C)C)[C@H](C(=O)O)N(C(=O)OC(C)C)[C@@H]2c2ccccc2)n1 (racemic) [Example I-10] | 1 to 10 | 1 to 10 | +++ (≥350) | < 100 |  |  |  |  |  |  |
| COc1ccc(C(C)(C)C)cc1CN[C@H]1[C@H](C(C)(C)OC)[C@@H](C(=O)O)N(C(=O)C2CCCCC2)[C@H]1c1cccnc1N(C)C [Example 41, (2S,3S,4S,5S)-4-{[(5-tert-butyl-2-methoxyphenyl)methyl]amino}-1-(cyclohexanecarbonyl)-5-[2-(dimethylamino)pyridin-3-yl]-3-(2-methoxypropan-2-yl)pyrrolidine-2-carboxylic acid] | 1 to 10 | < 1 | +++ (≥350) | > 200 |  |  |  |  |  |  |
| COc1ccc(C(C)(C)C)cc1CN[C@H]1[C@H](C(C)(C)C)[C@@H](C(=O)O)N(C(=O)[C@@H]2C[C@H]3CC[C@@H]2O3)[C@H]1c1ccccc1 (relative stereo) [Example I-241] | 1 to 10 | 1 to 10 | +++ (≥350) | > 200 |  |  |  |  |  |  |

Further lines, results first:

| EC50 [1] [µM] | EC50 [2] [µM] | Maximum % activity (with co-corrector) (with co-corrector (2 μM)) | Emax (without co-corrector) [%] | EC50 [3] [µM] | EC50 [4] [µM] | Maximum % activity (with co-corrector) [5] | Emax (CSE-HRP, without co-corrector) [%] | Emax [6] [%] | Maximum % activity (with co-corrector) [7] | Structure (SMILES) |
| --- | --- | --- | --- | --- | --- | --- | --- | --- | --- | --- |
|  |  |  |  | 1 to 10 | 1 to 10 | +++ (≥350) | 100 to 200 |  |  | COc1ccc(-c2c(C)noc2C)cc1CN[C@H]1[C@H](C(C)(C)C)[C@@H](C(=O)O)N(C(=O)C2CCCCC2)[C@H]1c1ccccc1 [II-285] |
| 1 to 10 |  |  |  |  |  |  |  | < 100 | ++ (≥150 and <350) | COc1ccc(C(C)(C)C)cc1CN[C@H]1[C@H](C(C)(C)C)[C@@H](C(=O)O)N(C(=O)C2CCc3ccccc3O2)[C@H]1c1cccnc1N(C)C (single isomer, unassigned) [II-438] |
| < 1 | < 1 | +++ (≥350) |  |  |  |  |  | > 200 |  | COc1ccc(C(C)(C)C)cc1CN[C@H]1[C@H](C(C)(C)C)[C@@H](C(=O)O)N(C(=O)C2CCCC(C)(C)C2)[C@H]1c1ccccc1 (stereo partly drawn) [III-203] |
|  |  |  |  | 1 to 10 | 1 to 10 | +++ (≥350) | 100 to 200 |  |  | CCOc1ccc(Br)cc1CN[C@H]1[C@H](C(C)(C)C)[C@@H](C(=O)O)N(C(=O)C2CCCCC2)[C@H]1c1ccccc1 [II-126] |
| 1 to 10 | 1 to 10 |  |  |  |  |  |  | < 100 | ++ (≥150 and <350) | Cc1cc(C(F)(F)F)cc(N[C@H]2[C@H](C(C)(C)C)[C@@H](C(=O)O)N(C(=O)C3CCCCO3)[C@H]2c2cccnc2N(C)C)n1 (relative stereo) [II-504] |
|  |  |  |  | 1 to 10 | < 1 | +++ (≥350) | > 200 |  |  | COc1ccc(C(C)(C)C)cc1CN[C@H]1[C@H](C(C)(C)C)[C@@H](C(=O)O)N(C(=O)Cc2cccs2)[C@H]1c1ccccc1 [II-182] |
| 1 to 10 | < 1 |  |  |  |  |  |  | 100 to 200 | +++ (≥350) | COc1cc(C(F)(F)F)ccc1CN[C@H]1[C@H](C(C)(C)C)[C@@H](C(=O)O)N(C(=O)C2CCCC(F)(F)C2)[C@H]1c1ccccc1 (stereo partly drawn) [II-508] |
| < 1 | < 1 |  |  |  |  |  |  | > 200 | +++ (≥350) | COc1ccc(C(C)(C)C)cc1CN[C@H]1[C@H](C(C)(C)C)[C@@H](C(=O)O)N(C(=O)C2CCc3cccc(OC)c3C2)[C@H]1c1ccccc1 (stereo partly drawn) [II-317] |
| 1 to 10 | 1 to 10 |  |  |  |  |  |  | > 200 | +++ (≥350) | CCC(C)(O)CC(=O)N1[C@H](C(=O)O)[C@@H](C(C)(C)C)[C@H](NCc2cc(C(C)(C)C)ccc2OC)[C@@H]1c1ccccc1 (stereo partly drawn) [II-371] |
| 1 to 10 | 1 to 10 |  |  |  |  |  |  | > 200 | +++ (≥350) | COc1ccc(C(C)(C)C)cc1CN[C@H]1[C@H](C(C)(C)C)[C@@H](C(=O)O)N(C(=O)C(C)C2CCCCO2)[C@H]1c1ccccc1 (stereo partly drawn) [II-457] |
| 1 to 10 | 1 to 10 |  |  |  |  |  |  | < 100 | ++ (≥150 and <350) | COc1ncc(C(F)(F)F)cc1CN[C@H]1[C@H](C(C)(C)C)[C@@H](C(=O)O)N(C(=O)[C@@H]2CCCO2)[C@H]1c1cccnc1N(C)C [II-596] |
| > 10 | 1 to 10 |  |  |  |  |  |  | < 100 | ++ (≥150 and <350) | COCCS(=O)(=O)NC(=O)[C@H]1[C@H](C(C)(C)C)[C@@H](Nc2cc(C(F)(F)F)cc(C)n2)[C@@H](c2ccccc2)N1C(=O)C1CCCCC1 (racemic) [Example III-49, rac-(2R,3R,4R,5R)-3-(tert-butyl)-1-(cyclohexanecarbonyl)-N-((2-methoxyethyl)sulfonyl)-4-((6-methyl-4-(trifluoromethyl)pyridin-2-yl)amino)-5-phenylpyrrolidine-2-carboxamide] |
|  |  |  |  | 1 to 10 | 1 to 10 | +++ (≥350) | > 200 |  |  | COc1ccc(Cl)cc1CN[C@@H]1[C@@H](C(C)(C)C)[C@H](C(=O)O)N(C(=O)C2CCOC(C)(C)C2)[C@@H]1c1ccccc1N(C)C (mixture of isomers) [II-25] |
|  |  |  |  | < 1 | < 1 | +++ (≥350) | 100 to 200 |  |  | COc1ccc(C(C)(C)C)cc1CN[C@H]1[C@H](C(C)(C)C)[C@@H](C(=O)O)N(C(=O)C(C)Oc2ccccc2Cl)[C@H]1c1ccccc1 (stereo partly drawn) [II-312] |
|  |  |  |  | 1 to 10 | < 1 | +++ (≥350) | 100 to 200 |  |  | COc1ccc(C(C)(C)C)cc1CN[C@H]1[C@H](C(C)(C)C)[C@@H](C(=O)O)N(C(=O)C2COc3ccccc3C2)[C@H]1c1ccccc1 (stereo partly drawn) [II-232] |
| 1 to 10 | < 1 |  |  |  |  |  |  | < 100 | +++ (≥350) | COc1ncc(C(F)(F)F)cc1CN[C@H]1[C@H](C(C)(C)C)[C@@H](C(=O)O)N(C(=O)[C@H]2CC[C@@H](c3ccccc3)O2)[C@H]1c1ccccc1 (relative stereo) [II-426] |
